Eleven sequences from paper PMC8907207, “Multiplex quantification of C-terminal alpha-1-antitrypsin peptides provides a novel approach for characterizing systemic inflammation” (Scientific Reports, 2022) can be followed below.

The nature of series [1]: Freeze/thaw stability of QC samples. The settings on record: QC in 70 g/L albumin in PBS, two cycles of freezing and thawing, LC-MS/MS. Format: in vitro ADME. As to the method: (§1) Stability of analytes in processed samples was determined at six independent days for a time span of 20 h in the autosampler. Deviations of standing samples to freshly measured samples were below 19% at the LLOQ and below 9% for other QC levels for each analyte, respectively (Additional file 4). Stability of analytes in biological matrix was determined by consecutive cycles of freezing and thawing as well as extended intervals at room temperature from thawing to processing (approximately one hour).
(§2) Lyophilized authentic peptide standards were dissolved and diluted in a 70 g/L Albumin (from human serum, lyophilized, ≥ 99%, Sigma-Aldrich) in PBS (Sigma-Aldrich, St. Louis, MO, USA) solution. Internal standards C37^IS and C42^IS were dissolved in Milli-Q water (Millipore, Brussels, Belgium) containing 0.1% (v/v) formic acid (≥ 95%, Sigma-Aldrich) whereas C22^IS was only dissolved in ultrapure water. Mixtures of CAAPs used as calibration standards (calibrants) and quality control samples (QCs) were prepared as stock solution to a final concentration of 14 µM, respectively, (expect C40^SNP which was 5 µM) with subsequent serial dilutions. Calibrants and QCs were obtained from separate serial dilutions. Internal standard solution was prepared by adding equal volumes of each IS yielding a final concentration of 0.8 µM, respectively. All samples used for method development and validation were prepared and stored in 0.5 mL Protein LoBind Tubes (Eppendorf AG, Hamburg, Germany) in aliquots at − 80 °C until use.
(§3) Working range of calibrants was defined based on CAAPs detected in samples from healthy donors (set to approximate lower limit of quantification) and in samples from septic patients (set to middle to high calibration range) which were re-analyzed from a previously work[46]. Nine calibrants were used in total ranging from 0.01 µM to 1.5 µM thereby covering more than two orders of magnitude in concentration. Linearity was assessed determining mean linear regression coefficients of each calibration curve from 0.01 to 1.5 µM in eight independent analytical runs. However, respective LLOQs (lower limit of quantification) and ULOQs (upper limit of quantification) were defined individually based on natural occurrence (see above) and results from validation parameter directly affected individual working ranges (carry-over, specificity). Four QC samples were prepared and measured in total (QC1, QC2, QC3, and QC4) to cover the entire range of calibration. However, three QCs for each of the respective analytes were used for method validation. Carry-over was determined measuring pure albumin solutions prepared without internal standards (but equal amount and concentration of water/formic acid solution as regular internal standard solution, “blank albumin sample”) directly after the respective highest calibrants. Peak areas were compared to peak areas from respective LLOQ samples (prepared with regular internal standard solution). Specificity was assessed using single compounds at respective highest calibrant level which were prepared and calculated as described for carry-over. The specificity of analytes towards internal standards was determined using pure albumin solution with internal standard (“zero albumin sample”). Accuracy and precision was determined by back-calculated concentrations from repeated measurements of the same QC samples during one analytical run (within-run repeatability, n = 5) and from freshly prepared samples during five independent analytical runs (between-run, n = 5). Due to the unavailability of analyte-free biological matrix, selectivity of analytes were assessed in pure albumin solution containing internal standards. Matrix effects were determined calculating recovery rates and precision of each compound in human blood samples. Direct comparison between different anticoagulants (EDTA, lithium-heparin) and serum was performed using whole blood from the same human donor. […]

Series [2] can be described thus: Benchtop stability of QC samples at room temperature. Format: in vitro ADME. The settings on record: QC in 70 g/L albumin in PBS, 60 min. at room temperature, LC-MS/MS. As to the method: as §1, §2, §3
[3] abbreviates: QC2 (0.025 µM; C40^SNP see Table 1).
The mark [4] stands for this setting: QC3 (0.3 µM; C40^SNP 0.1073 µM).

Ends that are not written are not given here.

Consider “IPMSIPPEVKFNKPFVFLMIEQNTKSPLFMGKVVNPTQK [C39^WT]”, for which, in series [1] (setting [3]), the freeze/ thaw stability, accuracy (mean of n=3) is 107% and the “freeze/ thaw stability, deviation from freshly processed QCs (mean of n=3)” value (“freeze/ thaw stability, deviation” for short) came to 8%. Besides, in series [1] (setting [4]), the freeze/ thaw stability, accuracy (mean of n=3) is 101% and the “freeze/ thaw stability, deviation” value came out at 2%. Moreover, in series [2] (setting [3]), the benchtop stability, accuracy (mean of n=3) is 106% and the “benchtop stability, deviation from freshly processed QCs (mean of n=3)” value (“benchtop stability, deviation” below) is 8%. In series [2] (setting [4]), the benchtop stability, accuracy (mean of n=3) stood at 98% and the “benchtop stability, deviation” value is recorded as -1%.

For the sequence “LEAIPMSIPPEVKFNKPFVFLMIDQNTKSPLFMGKVVNPTQK [C42^SNP]”, the freeze/ thaw stability, accuracy (mean of n=3) in series [1] (setting [3]) stood at 105%; in series [1] (setting [4]), 100%. Moreover, the “freeze/ thaw stability, deviation” value in series [1] (setting [3]) is recorded as 2%; in series [1] (setting [4]), -4%. In addition, the figures for the benchtop stability, accuracy (mean of n=3) in series [2] (setting [3]) and in series [2] (setting [4]) were 104% and 101%, respectively. The “benchtop stability, deviation” value in series [2] (setting [3]) is 1%; in series [2] (setting [4]), -3%.

For “LEAIPMSIPPEVKFNKPFVFLMIEQNTKSPLFMGKVVNPTQK [C42^WT]”, in series [1] (setting [3]), the freeze/ thaw stability, accuracy (mean of n=3) is 104% and the “freeze/ thaw stability, deviation” value is 2%. In addition, in series [1] (setting [4]), the freeze/ thaw stability, accuracy (mean of n=3) was 100% and the “freeze/ thaw stability, deviation” value was -4%. Further, in series [2] (setting [3]), the benchtop stability, accuracy (mean of n=3) was 102% and the “benchtop stability, deviation” value is on record as 1%. Moreover, in series [2] (setting [4]), the benchtop stability, accuracy (mean of n=3) came out at 101% and the “benchtop stability, deviation” value was -3%.

As to LMIDQNTKSPLFMGKVVNPTQK [C22^SNP], in series [1] (setting [3]), the freeze/ thaw stability, accuracy (mean of n=3) came to 103% and the “freeze/ thaw stability, deviation” value is listed as 2%. In addition, in series [1] (setting [4]), the freeze/ thaw stability, accuracy (mean of n=3) amounted to 97% and the “freeze/ thaw stability, deviation” value is 0%. Besides, in series [2] (setting [3]), the benchtop stability, accuracy (mean of n=3) is 104% and the “benchtop stability, deviation” value stood at 2%. Also, in series [2] (setting [4]), the benchtop stability, accuracy (mean of n=3) came to 100% and the “benchtop stability, deviation” value is 3%.

As for LMIEQNTKSPLFMGKVVNPTQK [C22^WT], the results for the freeze/ thaw stability, accuracy (mean of n=3) in series [1] (setting [3]) and in series [1] (setting [4]) were 104% and 99%, respectively. Besides, the figures for the “freeze/ thaw stability, deviation” value in series [1] (setting [3]) and in series [1] (setting [4]) were 2% and -2%, respectively. For the same sequence, the figures for the benchtop stability, accuracy (mean of n=3) in series [2] (setting [3]) and in series [2] (setting [4]) were 103% and 102%, respectively. Further, the “benchtop stability, deviation” value in series [2] (setting [3]) and in series [2] (setting [4]) was 1% throughout.

Turning to “MFLEAIPMSIPPEVKFNKPFVFLMIDQNTKSPLFMGKVVNPTQK [C44^SNP]”, the freeze/ thaw stability, accuracy (mean of n=3) in series [1] (setting [3]) turned out to be 109%; in series [1] (setting [4]) it was 115%. Also, the “freeze/ thaw stability, deviation” value in series [1] (setting [3]) is recorded as -6%; in series [1] (setting [4]), -2%. Besides, the results for the benchtop stability, accuracy (mean of n=3) in series [2] (setting [3]) and in series [2] (setting [4]) were 114% and 115%, respectively. Also, the “benchtop stability, deviation” value in series [2] (setting [3]) and in series [2] (setting [4]) was -2% throughout.

Take “MFLEAIPMSIPPEVKFNKPFVFLMIEQNTKSPLFMGKVVNPTQK [C44^WT]”: in series [1] (setting [3]), the freeze/ thaw stability, accuracy (mean of n=3) was found to be 110% and the “freeze/ thaw stability, deviation” value is recorded as -4%. For the same sequence, in series [1] (setting [4]), the freeze/ thaw stability, accuracy (mean of n=3) is 115% and the “freeze/ thaw stability, deviation” value is recorded as -1%. Moreover, in series [2] (setting [3]), the benchtop stability, accuracy (mean of n=3) came to 117% and the “benchtop stability, deviation” value came out at 1%. Also, in series [2] (setting [4]), the benchtop stability, accuracy (mean of n=3) is 114% and the “benchtop stability, deviation” value was -2%.

Consider “MSIPPEVKFNKPFVFLMIDQNTKSPLFMGKVVNPTQK [C37^SNP]”, for which, in series [1] (setting [3]), the freeze/ thaw stability, accuracy (mean of n=3) is 104% and the “freeze/ thaw stability, deviation” value was determined as 0%. Besides, in series [1] (setting [4]), the freeze/ thaw stability, accuracy (mean of n=3) stood at 98% and the “freeze/ thaw stability, deviation” value is on record as -1%. In series [2] (setting [3]), the benchtop stability, accuracy (mean of n=3) worked out at 103% and the “benchtop stability, deviation” value was 0%. For the same sequence, in series [2] (setting [4]), the benchtop stability, accuracy (mean of n=3) came out at 99% and the “benchtop stability, deviation” value was -1%.

Turning to “MSIPPEVKFNKPFVFLMIEQNTKSPLFMGKVVNPTQK [C37^WT]”, in series [1] (setting [3]), the freeze/ thaw stability, accuracy (mean of n=3) was 114% and the “freeze/ thaw stability, deviation” value was found to be 9%. For the same sequence, in series [1] (setting [4]), the freeze/ thaw stability, accuracy (mean of n=3) stood at 103% and the “freeze/ thaw stability, deviation” value amounted to 1%. In series [2] (setting [3]), the benchtop stability, accuracy (mean of n=3) is 106% and the “benchtop stability, deviation” value is given as 1%. Also, in series [2] (setting [4]), the benchtop stability, accuracy (mean of n=3) amounted to 101% and the “benchtop stability, deviation” value is -1%.

For the sequence “SIPPEVKFNKPFVFLMIDQNTKSPLFMGKVVNPTQK [C36^SNP]”, in series [1] (setting [3]), the freeze/ thaw stability, accuracy (mean of n=3) was found to be 104% and the “freeze/ thaw stability, deviation” value came to 2%. Besides, in series [1] (setting [4]), the freeze/ thaw stability, accuracy (mean of n=3) turned out to be 99% and the “freeze/ thaw stability, deviation” value is -2%. Also, in series [2] (setting [3]), the benchtop stability, accuracy (mean of n=3) turned out to be 101% and the “benchtop stability, deviation” value was -1%. Besides, in series [2] (setting [4]), the benchtop stability, accuracy (mean of n=3) was 98% and the “benchtop stability, deviation” value is -2%.

Consider “SIPPEVKFNKPFVFLMIEQNTKSPLFMGKVVNPTQK [C36^WT]”, for which, in series [1] (setting [3]), the freeze/ thaw stability, accuracy (mean of n=3) is 106% and the “freeze/ thaw stability, deviation” value was 4%. Also, in series [1] (setting [4]), the freeze/ thaw stability, accuracy (mean of n=3) was 98% and the “freeze/ thaw stability, deviation” value was -1%. In series [2] (setting [3]), the benchtop stability, accuracy (mean of n=3) turned out to be 106% and the “benchtop stability, deviation” value was 4%. Further, in series [2] (setting [4]), the benchtop stability, accuracy (mean of n=3) came to 98% and the “benchtop stability, deviation” value was -1%.
